Data from ChEMBL document CHEMBL4513152, “CO-ADD screening of Yantai University (China) compounds”.
≈ marks a conversion by molar mass, not a printed value.

Legend:
HEK293 = experiment: cells; type: functional; details: Homo sapiens, ATCC CRL1573, HEK293; ASSAY_TEST Inhibition of Cell Viability; detection method Resazurin; Fluorescence (ex560/em590); MEDIA DMEM with 10% FBS; plate type 384well; TC; CORNING #3712; time 18 hr
Klebsiella pneumoniae = experiment: microbe, parasite or virus in culture; details: ATCC 700603, 18 h, ASSAY_TEST Inhibition of Bacterial Growth, detection method Absorption (OD600), MEDIA CAMHB, plate type 384well, NBS, CORNING #3640
Description: Antibacterial activity against Klebsiella pneumoniae MDR ATCC 70063 (CO-ADD:GN_003); MIC in CAMBH media using NBS plates, by OD(600)

Pseudomonas aeruginosa = experiment: microbe, parasite or virus in culture; details: ATCC 27853, 18 h, ASSAY_TEST Inhibition of Bacterial Growth, detection method Absorption (OD600), MEDIA CAMHB, plate type 384well, NBS, CORNING #3640
Description: Antibacterial activity against Pseudomonas aeruginosa ATCC 27853 (CO-ADD:GN_042); MIC in CAMBH media using NBS plates, by OD(600)

Candida albicans = experiment: microbe, parasite or virus in culture; details: ATCC 90028, ASSAY_TEST Inhibition of Fungal Growth, detection method Absorption (OD530), plate type 384well, NBS, CORNING #3640
Description: Antifungal activity against Candida albicans ATCC 90028 (CO-ADD:FG_001); MIC in YNB media using NBS plates, by OD630

Escherichia coli = experiment: microbe, parasite or virus in culture; details: ATCC 25922, 18 h, ASSAY_TEST Inhibition of Bacterial Growth, detection method Absorption (OD600), MEDIA CAMHB, plate type 384well, NBS, CORNING #3640
Description: Antibacterial activity against Escherichia coli ATCC 25922 (CO-ADD:GN_001); MIC in CAMBH media using NBS plates, by OD(600)

Staphylococcus aureus = experiment: microbe, parasite or virus in culture; details: ATCC 43300, 18 h, ASSAY_TEST Inhibition of Bacterial Growth, detection method Absorption (OD600), MEDIA CAMHB, plate type 384well, NBS, CORNING #3640
Description: Antibacterial activity against Staphylococcus aureus MRSA ATCC 43300 (CO-ADD:GP_020); MIC in CAMBH media, using NBS plates, by OD(600)

Acinetobacter baumannii = experiment: microbe, parasite or virus in culture; details: ATCC 19606, 18 h, ASSAY_TEST Inhibition of Bacterial Growth, detection method Absorption (OD600), MEDIA CAMHB, plate type 384well, NBS, CORNING #3640
Description: Antibacterial activity against Acinetobacter baumannii ATCC 19606 (CO-ADD:GN_034); MIC in CAMBH media using NBS plates, by OD600

Description for Cryptococcus neoformans: Antifungal activity against Cryptococcus neoformans H99 ATCC 208821 (CO-ADD:FG_002); MIC in YNB media using NBS plates, by Resazurin OD(600-570)

## CC(=O)O[C@H]1C[C@@]2(C)C(C[C@@H](O)C3[C@@]4(C)CC[C@@H](OC(=O)CN)[C@@H](C)C4CC[C@@]32C)/C1=C(\CCC=C(C)C)C(=O)OCc1ccccc1 (some centres undefined)
HEK293
  CC50: 10.8 µg/mL (≈ 16.3 µM)
Klebsiella pneumoniae
  MIC: > 32 µg/mL
Pseudomonas aeruginosa
  MIC: > 32 µg/mL
Cryptococcus neoformans
  MIC: 16 µg/mL (≈ 24.1 µM)
Candida albicans
  MIC: 32 µg/mL (≈ 48.2 µM)
Escherichia coli
  MIC: > 32 µg/mL
Staphylococcus aureus
  MIC: > 32 µg/mL
Acinetobacter baumannii
  MIC: > 32 µg/mL

## CC(=O)O[C@H]1C[C@@]2(C)C(C[C@@H](O)C3[C@@]4(C)CC[C@@H](O)[C@@H](C)C4CC[C@@]32C)/C1=C(\CCC=C(C)C)C(=O)On1nnc2ccc(Cl)cc21 (some centres undefined)
HEK293
  CC50: > 32 µg/mL
Klebsiella pneumoniae
  MIC: > 32 µg/mL
Pseudomonas aeruginosa
  MIC: > 32 µg/mL
Cryptococcus neoformans
  MIC: > 32 µg/mL
Candida albicans
  MIC: > 32 µg/mL
Escherichia coli
  MIC: > 32 µg/mL
Staphylococcus aureus
  MIC: ≤ 0.25 µg/mL
Acinetobacter baumannii
  MIC: > 32 µg/mL

## CC(=O)O[C@H]1C[C@@]2(C)C(C[C@@H](O)C3[C@@]4(C)CC[C@@H](OC(=O)c5ccccc5C(=O)O)[C@@H](C)C4CC[C@@]32C)/C1=C(\CCC=C(C)C)C(=O)OCc1ccccc1 (some centres undefined)
HEK293
  CC50: 20.6 µg/mL (≈ 27.3 µM)
Klebsiella pneumoniae
  MIC: > 32 µg/mL
Pseudomonas aeruginosa
  MIC: > 32 µg/mL
Cryptococcus neoformans
  MIC: > 32 µg/mL
Candida albicans
  MIC: > 32 µg/mL
Escherichia coli
  MIC: > 32 µg/mL
Staphylococcus aureus
  MIC: 32 µg/mL (≈ 42.4 µM)
Acinetobacter baumannii
  MIC: > 32 µg/mL

## CC(=O)O[C@H]1C[C@@]2(C)C(C[C@@H](O)C3[C@@]4(C)CC[C@@H](OC(=O)C(N)Cc5ccccc5)[C@@H](C)C4CC[C@@]32C)/C1=C(\CCC=C(C)C)C(=O)OCc1ccccc1 (some centres undefined)
HEK293
  CC50: > 32 µg/mL
Klebsiella pneumoniae
  MIC: > 32 µg/mL
Pseudomonas aeruginosa
  MIC: > 32 µg/mL
Cryptococcus neoformans
  MIC: > 32 µg/mL
Candida albicans
  MIC: > 32 µg/mL
Escherichia coli
  MIC: > 32 µg/mL
Staphylococcus aureus
  MIC: > 32 µg/mL
Acinetobacter baumannii
  MIC: > 32 µg/mL

## CCN/C(=N\CCCN(C)C)OC(=O)/C(CCC=C(C)C)=C1/C2C[C@@H](O)C3[C@@]4(C)CC[C@@H](O)[C@@H](C)C4CC[C@]3(C)[C@@]2(C)C[C@@H]1OC(C)=O (some centres undefined)
HEK293
  CC50: 15.4 µg/mL (≈ 22.9 µM)
Klebsiella pneumoniae
  MIC: > 32 µg/mL
Pseudomonas aeruginosa
  MIC: > 32 µg/mL
Cryptococcus neoformans
  MIC: > 32 µg/mL
Candida albicans
  MIC: > 32 µg/mL
Escherichia coli
  MIC: > 32 µg/mL
Staphylococcus aureus
  MIC: 8 µg/mL (≈ 11.9 µM)
Acinetobacter baumannii
  MIC: > 32 µg/mL

## CC(=O)O[C@H]1C[C@@]2(C)C(C[C@@H](O)C3[C@@]4(C)CC[C@@H](O)[C@@H](C)C4CC[C@@]32C)/C1=C(\CCC=C(C)C)C(=O)O/C(=N/C1CCCCC1)NC1CCCCC1 (some centres undefined)
HEK293
  CC50: 19.9 µg/mL (≈ 27.5 µM)
Klebsiella pneumoniae
  MIC: > 32 µg/mL
Pseudomonas aeruginosa
  MIC: > 32 µg/mL
Cryptococcus neoformans
  MIC: > 32 µg/mL
Candida albicans
  MIC: > 32 µg/mL
Escherichia coli
  MIC: > 32 µg/mL
Staphylococcus aureus
  MIC: 32 µg/mL (≈ 44.3 µM)
Acinetobacter baumannii
  MIC: > 32 µg/mL

## CC(=O)O[C@H]1C[C@@]2(C)C(C[C@@H](O)C3[C@@]4(C)CC[C@@H](OC(=O)CCCCCN)[C@@H](C)C4CC[C@@]32C)/C1=C(\CCC=C(C)C)C(=O)OCc1ccccc1 (some centres undefined)
HEK293
  CC50: 8.27 µg/mL (≈ 11.5 µM)
Klebsiella pneumoniae
  MIC: > 32 µg/mL
Pseudomonas aeruginosa
  MIC: > 32 µg/mL
Cryptococcus neoformans
  MIC: 16 µg/mL (≈ 22.2 µM)
Candida albicans
  MIC: 32 µg/mL (≈ 44.4 µM)
Escherichia coli
  MIC: > 32 µg/mL
Staphylococcus aureus
  MIC: 16 µg/mL (≈ 22.2 µM)
Acinetobacter baumannii
  MIC: > 32 µg/mL

## CC(=O)O[C@H]1C[C@@]2(C)C(C[C@@H](O)C3[C@@]4(C)CC[C@@H](O)[C@@H](C)C4CC[C@@]32C)/C1=C(\CCC=C(C)C)C(=O)O (some centres undefined)
HEK293
  CC50: > 32 µg/mL
Klebsiella pneumoniae
  MIC: > 32 µg/mL
Pseudomonas aeruginosa
  MIC: > 32 µg/mL
Cryptococcus neoformans
  MIC: > 32 µg/mL
Candida albicans
  MIC: > 32 µg/mL
Escherichia coli
  MIC: > 32 µg/mL
Staphylococcus aureus
  MIC: ≤ 0.25 µg/mL
Acinetobacter baumannii
  MIC: > 32 µg/mL
